Assay results as given in PubChem BioAssay AID328 (DTP/NCI, 2004).
“And” between values parts separate entries of the source, which are not always exact repeats. Equal values may be shown once. Inconclusive results and toxic doses are left out.

Tested on: BDF1 mice, P388 leukemia ip, median survival T/C
Test: NCI In Vivo Anticancer Drug Screen. Data for tumor model P388 Leukemia (intraperitoneal) in B6D2F1 (BDF1) mice
Details: endpoint: median survival time, higher = longer survival
Summary of the method: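 Each value expresses how treatment altered survival: treated-mouse outcome over vehicle-mouse outcome, both groups bearing the transplanted tumour.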

[1] = dose: 200.0 mg/kg/injection, schedule: Q01DX009 (ip), vehicle: saline with Tween-80
[2] = dose: 400.0 mg/kg/injection, schedule: Q01DX009 (ip), vehicle: saline with Tween-80
[3] = dose: 100.0 mg/kg/injection, schedule: Q01DX001 (ip), vehicle: Klucel (hydroxypropylcellulose) (HPC)
[4] = dose: 200.0 mg/kg/injection, schedule: Q01DX001 (ip), vehicle: Klucel (hydroxypropylcellulose) (HPC)
[5] = dose: 25.0 mg/kg/injection, schedule: Q01DX009 (ip), vehicle: saline
[6] = dose: 50.0 mg/kg/injection, schedule: Q01DX009 (ip), vehicle: saline

Cc1ccc(NC(=O)c2ccc(Cl)cc2)c(Br)c1
T/C (dose: 100.0 mg/kg/injection, schedule: Q01DX001 (ip), vehicle: saline with Tween-80): 100 % of control
T/C (dose: 200.0 mg/kg/injection, schedule: Q01DX001 (ip), vehicle: saline with Tween-80): 109 % of control
T/C (dose: 400.0 mg/kg/injection, schedule: Q01DX001 (ip), vehicle: saline with Tween-80): 100 % of control

CC#CCOCC1CN(c2ccccc2)C(=O)O1 (configuration not stated)
T/C (dose: 100.0 mg/kg/injection, schedule: Q04DX003 (ip), vehicle: saline): 92 % of control
T/C [1]: 100 % of control
T/C (dose: 200.0 mg/kg/injection, schedule: Q04DX003 (ip), vehicle: saline): 92 % of control
T/C [2]: 100 % of control
T/C (dose: 400.0 mg/kg/injection, schedule: Q04DX003 (ip), vehicle: saline): 100 % of control

O=C(C=C(C(F)(F)F)C(F)(F)F)c1ccc([N+](=O)[O-])cc1
T/C (dose: 1.56 mg/kg/injection, schedule: Q01DX009 (ip), vehicle: other): 100 % of control
T/C (dose: 3.13 mg/kg/injection, schedule: Q01DX009 (ip), vehicle: other): 109 % of control
T/C (dose: 6.25 mg/kg/injection, schedule: Q01DX009 (ip), vehicle: other): 104 % of control

N\C([S-])=N/N=C\C(=N/N=C(\N)[S-])C(O)C(O)C(O)CO.[Rh+2] (configuration not stated)
T/C [3]: 100 % of control
T/C [4]: 104 % of control
T/C (dose: 400.0 mg/kg/injection, schedule: Q01DX001 (ip), vehicle: Klucel (hydroxypropylcellulose) (HPC)): 109 % of control

CS(=O)(=O)Nc1ccc(Nc2c3ccccc3nc3cc(N)ccc23)cc1
T/C (dose: 0.22 mg/kg/injection, schedule: Q01DX009 (ip), vehicle: saline): 205 % of control
T/C (dose: 0.33 mg/kg/injection, schedule: Q01DX009 (ip), vehicle: saline): 205 % of control
T/C (dose: 0.44 mg/kg/injection, schedule: Q04DX003 (ip), vehicle: saline): 159 % of control
T/C (dose: 0.5 mg/kg/injection, schedule: Q01DX009 (ip), vehicle: saline): 222 % of control
T/C (dose: 0.56 mg/kg/injection, schedule: Q01DX009 (ip), vehicle: saline): 222 % of control
T/C (dose: 0.66 mg/kg/injection, schedule: Q04DX003 (ip), vehicle: saline): 168 % of control
T/C (dose: 0.75 mg/kg/injection, schedule: Q01DX009 (ip), vehicle: saline): 253 % of control
T/C (dose: 0.83 mg/kg/injection, schedule: Q01DX009 (ip), vehicle: saline): 275 % of control
T/C (dose: 1.0 mg/kg/injection, schedule: Q04DX003 (ip), vehicle: saline): 154 % of control
T/C (dose: 1.25 mg/kg/injection, schedule: Q01DX009 (ip), vehicle: saline): 268 % of control and 271 % of control
T/C (dose: 1.5 mg/kg/injection, schedule: Q04DX003 (ip), vehicle: saline): 190 % of control
T/C (dose: 1.87 mg/kg/injection, schedule: Q01DX009 (ip), vehicle: saline): 111 % of control
T/C (dose: 2.5 mg/kg/injection, schedule: Q01DX009 (ip), vehicle: saline): 97 % of control
T/C (dose: 2.9 mg/kg/injection, schedule: Q04DX003 (ip), vehicle: saline): 245 % of control
T/C (dose: 4.4 mg/kg/injection, schedule: Q04DX003 (ip), vehicle: saline): 168 % of control
T/C (dose: 6.6 mg/kg/injection, schedule: Q04DX003 (ip), vehicle: saline): 281 % of control
T/C (dose: 10.0 mg/kg/injection, schedule: Q04DX003 (ip), vehicle: saline): 195 % of control

O=C(O)C(S)C(S)C(=O)O.[As] (configuration not stated)
T/C [5]: 94 % of control
T/C (dose: 25.0 mg/kg/injection, schedule: Q04DX003 (ip), vehicle: saline sonified): 118 % of control
T/C [6]: 88 % of control
T/C (dose: 50.0 mg/kg/injection, schedule: Q04DX003 (ip), vehicle: saline sonified): 118 % of control
T/C (dose: 100.0 mg/kg/injection, schedule: Q01DX009 (ip), vehicle: saline): 88 % of control
T/C (dose: 100.0 mg/kg/injection, schedule: Q04DX003 (ip), vehicle: saline sonified): 122 % of control

NC(N)=Nc1ccc(C(=O)Oc2ccc(OC(=O)c3cccc(N=C(N)N)c3)cc2)cc1
T/C (dose: 50.0 mg/kg/injection, schedule: Q01DX009 (ip), vehicle: water): 96 % of control
T/C (dose: 50.0 mg/kg/injection, schedule: Q04DX003 (ip), vehicle: water): 103 % of control
T/C (dose: 100.0 mg/kg/injection, schedule: Q01DX009 (ip), vehicle: water): 96 % of control
T/C (dose: 100.0 mg/kg/injection, schedule: Q04DX003 (ip), vehicle: water): 94 % of control
T/C (dose: 200.0 mg/kg/injection, schedule: Q01DX009 (ip), vehicle: water): 99 % of control
T/C (dose: 200.0 mg/kg/injection, schedule: Q04DX003 (ip), vehicle: water): 100 % of control
T/C (dose: 400.0 mg/kg/injection, schedule: Q01DX009 (ip), vehicle: water): 114 % of control
T/C (dose: 400.0 mg/kg/injection, schedule: Q04DX003 (ip), vehicle: water): 105 % of control

Cc1ccc(-c2c(O)c(Br)c(-c3ccc(C)cc3C)c(O)c2Br)c(C)c1
T/C (dose: 100.0 mg/kg/injection, schedule: Q01DX009 (ip), vehicle: saline with Tween-80): 100 % of control
T/C [1]: 100 % of control
T/C [2]: 100 % of control

CC1CN1P(=O)(OCCC#N)N1CC1C (configuration not stated)
T/C [5]: 115 % of control
T/C [6]: 97 % of control
T/C (dose: 100.0 mg/kg/injection, schedule: Q04DX003 (ip), vehicle: other): 163 % of control
T/C (dose: 150.0 mg/kg/injection, schedule: Q01DX009 (ip), vehicle: other): 170 % of control
T/C (dose: 200.0 mg/kg/injection, schedule: Q01DX009 (ip), vehicle: saline): 160 % of control and 203 % of control
T/C (dose: 200.0 mg/kg/injection, schedule: Q04DX003 (ip), vehicle: other): 227 % of control

CCC(=O)NC(N)=S
T/C (dose: 12.5 mg/kg/injection, schedule: Q04DX003 (ip), vehicle: Klucel (hydroxypropylcellulose) (HPC)): 100 % of control
T/C (dose: 25.0 mg/kg/injection, schedule: Q04DX003 (ip), vehicle: Klucel (hydroxypropylcellulose) (HPC)): 100 % of control
T/C (dose: 50.0 mg/kg/injection, schedule: Q04DX003 (ip), vehicle: Klucel (hydroxypropylcellulose) (HPC)): 100 % of control

COc1cc2c(cc1OC)[C@H]1Cc3cc(OC)c(OC)cc3[C@@H](C2)N1C(C)=O
T/C (dose: 50.0 mg/kg/injection, schedule: Q01DX005 (ip), vehicle: saline with Tween-80): 91 % of control
T/C (dose: 100.0 mg/kg/injection, schedule: Q01DX005 (ip), vehicle: saline with Tween-80): 91 % of control
T/C (dose: 200.0 mg/kg/injection, schedule: Q01DX005 (ip), vehicle: saline with Tween-80): 93 % of control

Cc1ccc(/C(C#N)=C2C=C(Br)/C(=N\O)C=C/2Cl)cc1
T/C (dose: 28.12 mg/kg/injection, schedule: Q04DX003 (ip), vehicle: Klucel (hydroxypropylcellulose) (HPC)): 100 % of control
T/C (dose: 56.25 mg/kg/injection, schedule: Q01DX009 (ip), vehicle: Klucel (hydroxypropylcellulose) (HPC)): 115 % of control
T/C (dose: 56.25 mg/kg/injection, schedule: Q04DX003 (ip), vehicle: Klucel (hydroxypropylcellulose) (HPC)): 100 % of control
T/C [3]: 90 % of control
T/C (dose: 112.5 mg/kg/injection, schedule: Q01DX009 (ip), vehicle: Klucel (hydroxypropylcellulose) (HPC)): 110 % of control
T/C (dose: 112.5 mg/kg/injection, schedule: Q04DX003 (ip), vehicle: Klucel (hydroxypropylcellulose) (HPC)): 100 % of control
T/C (dose: 150.0 mg/kg/injection, schedule: Q01DX009 (ip), vehicle: Klucel (hydroxypropylcellulose) (HPC)): 100 % of control
T/C (dose: 170.0 mg/kg/injection, schedule: Q04DX003 (ip), vehicle: Klucel (hydroxypropylcellulose) (HPC)): 105 % of control
T/C [4]: 104 % of control
T/C (dose: 225.0 mg/kg/injection, schedule: Q01DX009 (ip), vehicle: Klucel (hydroxypropylcellulose) (HPC)): 105 % of control
T/C (dose: 255.0 mg/kg/injection, schedule: Q04DX003 (ip), vehicle: Klucel (hydroxypropylcellulose) (HPC)): 110 % of control
T/C (dose: 335.0 mg/kg/injection, schedule: Q01DX009 (ip), vehicle: Klucel (hydroxypropylcellulose) (HPC)): 100 % of control
T/C (dose: 380.0 mg/kg/injection, schedule: Q04DX003 (ip), vehicle: Klucel (hydroxypropylcellulose) (HPC)): 100 % of control

C(=N/c1ncn[nH]1)/Nc1ncn[nH]1
T/C (dose: 12.5 mg/kg/injection, schedule: Q01DX009 (ip), vehicle: suspension in saline): 100 % of control
T/C (dose: 25.0 mg/kg/injection, schedule: Q01DX009 (ip), vehicle: suspension in saline): 113 % of control
T/C (dose: 50.0 mg/kg/injection, schedule: Q01DX009 (ip), vehicle: suspension in saline): 118 % of control
T/C (dose: 100.0 mg/kg/injection, schedule: Q01DX009 (ip), vehicle: suspension in saline): 96 % of control
